Experimental data as given in PubChem BioAssay (NCI).
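Protocol summary: plate cells (96-well), add compound at 5 concentrations, incubate 48 h, interpolate endpoints linearly. TGI: concentration producing complete growth inhibition.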

Key:
Assay in all cases: NCI anticancer screen, dose series, 48 h
SW-620 colon = tested on: SW-620 colon
SK-MEL-28 melanoma = tested on: SK-MEL-28 melanoma
LOX IMVI melanoma = tested on: LOX IMVI melanoma
IGROV1 ovarian = tested on: IGROV1 ovarian
MDA-N = tested on: MDA-N
RXF 393 renal = tested on: RXF 393 renal
SF-295 CNS = tested on: SF-295 CNS
UO-31 renal = tested on: UO-31 renal
SK-OV-3 ovarian = tested on: SK-OV-3 ovarian
DU-145 prostate = tested on: DU-145 prostate
OVCAR-8 ovarian = tested on: OVCAR-8 ovarian
HCT-15 colon = tested on: HCT-15 colon
MDA-MB-435 = tested on: MDA-MB-435
MOLT-4 leukemia = tested on: MOLT-4 leukemia
NCI-H23 lung = tested on: NCI-H23 lung
U251 CNS = tested on: U251 CNS
SNB-19 CNS = tested on: SNB-19 CNS
NCI-H460 lung = tested on: NCI-H460 lung
786-0 renal = tested on: 786-0 renal
NCI-H226 lung = tested on: NCI-H226 lung

Row | SMILES | TGI (SW-620 colon) | TGI (SK-MEL-28 melanoma) | TGI (LOX IMVI melanoma) | TGI (IGROV1 ovarian) | TGI (MDA-N) | TGI (RXF 393 renal) | TGI (SF-295 CNS) | TGI (UO-31 renal) | TGI (SK-OV-3 ovarian) | TGI (DU-145 prostate) | TGI (OVCAR-8 ovarian) | TGI (HCT-15 colon) | TGI (MDA-MB-435) | TGI (MOLT-4 leukemia) | TGI (NCI-H23 lung) | TGI (U251 CNS) | TGI (SNB-19 CNS) | TGI (NCI-H460 lung) | TGI (786-0 renal) | TGI (NCI-H226 lung)
1 | Cn1c(=O)n2n(c1=O)C(S(=O)c1ccccc1)C2 (stereo unspecified) | > 100 µM | > 100 µM | > 100 µM | > 100 µM | > 100 µM | > 100 µM | > 100 µM | > 100 µM | > 100 µM | > 100 µM | > 100 µM | > 100 µM | > 100 µM | > 100 µM | > 100 µM | > 100 µM | > 100 µM | > 100 µM | > 100 µM | 
2 | O=C(O)Cn1ccc(=O)c2c([N+](=O)[O-])cccc21 | > 100 µM | > 100 µM |  | > 100 µM | > 100 µM |  | > 100 µM | > 100 µM | > 100 µM | > 100 µM | > 100 µM | > 100 µM | > 100 µM | > 100 µM | > 100 µM | > 100 µM | > 100 µM | > 100 µM | > 100 µM | > 100 µM
3 | CCOP(=O)(/C=C\n1ccc(=O)[nH]c1=O)OCC | > 100 µM | > 100 µM | > 100 µM | > 100 µM | > 100 µM | > 100 µM | > 100 µM |  | > 100 µM | > 100 µM | > 100 µM | > 100 µM | > 100 µM | > 100 µM | > 100 µM | > 100 µM | > 100 µM |  | > 100 µM | > 100 µM
4 | CC(=O)Oc1ccc(/C=C/C(=O)NCCOC(=O)/C=C/c2ccc(OC(C)=O)c(OC(C)=O)c2)cc1OC(C)=O | 61.8 µM | > 100 µM | 38.6 µM | > 100 µM | > 100 µM | 47.4 µM | 76.7 µM | 83.3 µM | > 100 µM | > 100 µM | > 100 µM | > 100 µM | > 100 µM | > 100 µM | 79.4 µM | > 100 µM | > 100 µM | > 100 µM | 84.9 µM | 
5 | Brc1ccc(-c2nc(-c3ccc(Br)cc3)n(-c3ccccc3)n2)cc1 | > 100 µM | > 100 µM | > 100 µM | > 100 µM | > 100 µM |  | > 100 µM | > 100 µM | > 100 µM | > 100 µM | > 100 µM | > 100 µM | > 100 µM | > 100 µM | > 100 µM | > 100 µM | > 100 µM | > 100 µM | > 100 µM | > 100 µM
6 | O=C1NC2=NN=C(c3ccc(Br)cc3)CN2NC12c1ccccc1-c1ccccc12 | > 100 µM | > 100 µM | > 100 µM | > 100 µM | > 100 µM | > 100 µM | > 100 µM | > 100 µM | > 100 µM | > 100 µM | > 100 µM | > 100 µM | > 100 µM |  | > 100 µM | > 100 µM | > 100 µM | > 100 µM | > 100 µM | > 100 µM
7 | COc1cc(S(=O)(=O)Nc2ccc(-c3csc(/N=C\c4cccs4)n3)cc2)ccc1Cl | > 100 µM | > 100 µM | > 100 µM | > 100 µM | > 100 µM |  | > 100 µM | > 100 µM | > 100 µM | > 100 µM | > 100 µM | > 100 µM | 96.9 µM |  | > 100 µM |  | > 100 µM | > 100 µM | > 100 µM | > 100 µM
8 | O=C1CC(=O)NC(=NN2C(=O)/C(=C/c3ccc(Cl)cc3)N=C2c2ccccc2)N1 | 31.9 µM | 33.6 µM |  | 27.4 µM | 30.2 µM | 30.1 µM | 33 µM | 31.7 µM | 51.8 µM | > 100 µM | 30.5 µM | 30.8 µM | 29.1 µM | 22.7 µM | 31.5 µM | 33 µM |  | 22.9 µM | 37.5 µM | 31.5 µM
9 | Cn1c(SCc2c[nH]c3ccccc23)nnc1-c1ccc(Cl)cc1Cl | > 100 µM | > 100 µM | 20 µM | 67.2 µM | 78.9 µM | 32.5 µM | 27.2 µM | 82.9 µM | 59.4 µM | 78.5 µM | > 100 µM | > 100 µM | 12 µM | 27.5 µM | 69.9 µM | 38.1 µM | 61.7 µM | 26.3 µM | 68.6 µM | 
10 | COC(=O)c1ccccc1/C=C1\Cc2ccc3ccccc3c2C1C (stereo unspecified) | > 100 µM | > 100 µM | > 100 µM | > 100 µM | > 100 µM | > 100 µM | > 100 µM | > 100 µM |  | > 100 µM | > 100 µM | > 100 µM | > 100 µM | > 100 µM |  | > 100 µM | > 100 µM | > 100 µM | > 100 µM | > 100 µM
11 | Clc1cccc2[nH]ncc12 | > 100 µM | > 100 µM | > 100 µM | > 100 µM | > 100 µM | > 100 µM | > 100 µM |  | > 100 µM | > 100 µM | > 100 µM | > 100 µM | > 100 µM | > 100 µM |  | > 100 µM | > 100 µM | > 100 µM | > 100 µM | > 100 µM
12 | CCOC(=O)[C@@H]1C[C@@H]1c1ccc(O)c(O)c1 | 42.2 µM | > 100 µM |  | > 100 µM | 35.1 µM | 54 µM | > 100 µM | 60.9 µM | > 100 µM | > 100 µM | 52.2 µM | > 100 µM | 34.5 µM | 22.5 µM | > 100 µM | > 100 µM | > 100 µM | > 100 µM | 34.7 µM | 97.4 µM
13 | FC(F)(F)c1cnc(N/N=C(/c2ccccc2)c2ccccn2)c(Cl)c1 | > 100 µM | > 100 µM |  | 11.5 µM | > 100 µM | 32.5 µM | 11 µM | 21.7 µM | 17.9 µM | 51.3 µM | 5.79 µM | 33.7 µM | > 100 µM | > 100 µM | 25.1 µM | 30.4 µM | 50.9 µM | 10.5 µM | 17.9 µM | 50.4 µM
14 | CON(C)C(=O)C(C)NC(=O)OC(C)(C)C (stereo unspecified) | > 100 µM | > 100 µM |  | > 100 µM | > 100 µM | > 100 µM | > 100 µM | > 100 µM | > 100 µM | > 100 µM | > 100 µM | > 100 µM | > 100 µM | > 100 µM | > 100 µM | > 100 µM | > 100 µM | > 100 µM | > 100 µM | > 100 µM
15 | COc1cccc(N2C(=O)C3CC(CC(C)(C)C)c4c([nH]c5ccccc45)C3C2=O)c1 (stereo unspecified) | > 10 µM | > 10 µM | > 10 µM | > 10 µM | > 10 µM | > 10 µM | > 10 µM |  | > 10 µM | > 10 µM | > 10 µM | > 10 µM | > 10 µM | > 10 µM | > 10 µM | > 10 µM | > 10 µM | > 10 µM | > 10 µM | > 10 µM
16 | COc1ccc(/C=N/n2c(Cc3ccccc3)n[nH]c2=O)cc1 | > 100 µM | > 100 µM |  |  | > 100 µM |  | > 100 µM | > 100 µM | > 100 µM | > 100 µM | > 100 µM | > 100 µM | > 100 µM | > 100 µM | > 100 µM | > 100 µM | > 100 µM | > 100 µM | > 100 µM | > 100 µM
17 | CCN(CC)Cc1ccc(Nc2c3ccccc3nc3ccccc23)cc1 | 4.12 µM | 4.69 µM | 3.3 µM | 13.9 µM | 3.23 µM | 3.96 µM | 10.9 µM | 5.22 µM | 5.56 µM | 7.01 µM | 15 µM | 2.56 µM | 4.17 µM | > 100 µM | 4.52 µM | 6.68 µM | 3.22 µM | 3.05 µM | 10 µM | 
18 | Cc1cc(C)nc(NC(=S)Nc2ccc(Cl)cc2)c1 | > 100 µM | > 100 µM | > 100 µM | > 100 µM | > 100 µM | > 100 µM | > 100 µM | > 100 µM | > 100 µM | > 100 µM | 71.5 µM | > 100 µM | > 100 µM | > 100 µM |  | > 100 µM | > 100 µM | > 100 µM | 80.2 µM | > 100 µM
19 | COc1cccc(/C=C2/S/C(=N/Nc3nc(C)c(C(C)=O)s3)NC2=O)c1O | > 100 µM | > 100 µM | > 100 µM | > 100 µM | > 100 µM | 93.2 µM | > 100 µM | 51.3 µM | > 100 µM | > 100 µM | > 100 µM | > 100 µM | > 100 µM |  | > 100 µM | 44 µM | > 100 µM | > 100 µM | > 100 µM | > 100 µM
20 | CCOP(=O)(/C=C/n1cnc2c(=O)n(C(C)=O)c(N)nc21)OCC | > 100 µM | > 100 µM | > 100 µM | > 100 µM | > 100 µM | > 100 µM | > 100 µM |  | > 100 µM | > 100 µM | > 100 µM | > 100 µM | > 100 µM | > 100 µM | > 100 µM | > 100 µM | > 100 µM | > 100 µM | > 100 µM | > 100 µM
